Where two headings read alike, the source gives them in different places.
Key:
Assay type in all cases: biochemical
[1] = molecular target: T1, PRMT4 (Homo sapiens, UniProt Q86X55); assay: human MTase selectivity panel
T1 sequence (Q86X55 1-608): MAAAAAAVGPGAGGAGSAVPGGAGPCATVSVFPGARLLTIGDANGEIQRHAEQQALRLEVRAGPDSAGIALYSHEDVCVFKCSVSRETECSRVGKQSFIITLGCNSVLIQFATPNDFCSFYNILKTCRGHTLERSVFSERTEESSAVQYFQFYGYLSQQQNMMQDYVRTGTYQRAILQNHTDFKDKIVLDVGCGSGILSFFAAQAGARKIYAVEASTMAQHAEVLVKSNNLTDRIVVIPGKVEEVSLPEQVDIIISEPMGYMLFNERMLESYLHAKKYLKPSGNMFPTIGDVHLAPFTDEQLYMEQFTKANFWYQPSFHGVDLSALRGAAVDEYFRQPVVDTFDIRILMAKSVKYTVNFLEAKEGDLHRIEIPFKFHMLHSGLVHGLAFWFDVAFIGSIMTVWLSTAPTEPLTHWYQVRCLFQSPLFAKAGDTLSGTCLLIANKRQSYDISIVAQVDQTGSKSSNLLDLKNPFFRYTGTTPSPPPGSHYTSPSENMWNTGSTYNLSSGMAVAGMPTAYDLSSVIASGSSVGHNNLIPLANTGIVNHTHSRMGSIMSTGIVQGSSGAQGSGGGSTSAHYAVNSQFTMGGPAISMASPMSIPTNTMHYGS

[2] = molecular target: DOT1L (Homo sapiens, UniProt Q8TEK3); assay: human MTase selectivity panel
[3] = molecular target: PRMT8 (Homo sapiens, UniProt Q9NR22); assay: human MTase selectivity panel
[4] = molecular target: MLL1 (Homo sapiens, UniProt Q03164); assay: human MTase selectivity panel
[5] = molecular target: SARS-CoV-2 nsp14 MTase (Severe acute respiratory syndrome coronavirus 2, UniProt P0DTD1); assay: biochemical
[6] = molecular target: T2, NSD2 (Homo sapiens, UniProt O96028); assay: human MTase selectivity panel
T2 sequence (O96028 1-1365): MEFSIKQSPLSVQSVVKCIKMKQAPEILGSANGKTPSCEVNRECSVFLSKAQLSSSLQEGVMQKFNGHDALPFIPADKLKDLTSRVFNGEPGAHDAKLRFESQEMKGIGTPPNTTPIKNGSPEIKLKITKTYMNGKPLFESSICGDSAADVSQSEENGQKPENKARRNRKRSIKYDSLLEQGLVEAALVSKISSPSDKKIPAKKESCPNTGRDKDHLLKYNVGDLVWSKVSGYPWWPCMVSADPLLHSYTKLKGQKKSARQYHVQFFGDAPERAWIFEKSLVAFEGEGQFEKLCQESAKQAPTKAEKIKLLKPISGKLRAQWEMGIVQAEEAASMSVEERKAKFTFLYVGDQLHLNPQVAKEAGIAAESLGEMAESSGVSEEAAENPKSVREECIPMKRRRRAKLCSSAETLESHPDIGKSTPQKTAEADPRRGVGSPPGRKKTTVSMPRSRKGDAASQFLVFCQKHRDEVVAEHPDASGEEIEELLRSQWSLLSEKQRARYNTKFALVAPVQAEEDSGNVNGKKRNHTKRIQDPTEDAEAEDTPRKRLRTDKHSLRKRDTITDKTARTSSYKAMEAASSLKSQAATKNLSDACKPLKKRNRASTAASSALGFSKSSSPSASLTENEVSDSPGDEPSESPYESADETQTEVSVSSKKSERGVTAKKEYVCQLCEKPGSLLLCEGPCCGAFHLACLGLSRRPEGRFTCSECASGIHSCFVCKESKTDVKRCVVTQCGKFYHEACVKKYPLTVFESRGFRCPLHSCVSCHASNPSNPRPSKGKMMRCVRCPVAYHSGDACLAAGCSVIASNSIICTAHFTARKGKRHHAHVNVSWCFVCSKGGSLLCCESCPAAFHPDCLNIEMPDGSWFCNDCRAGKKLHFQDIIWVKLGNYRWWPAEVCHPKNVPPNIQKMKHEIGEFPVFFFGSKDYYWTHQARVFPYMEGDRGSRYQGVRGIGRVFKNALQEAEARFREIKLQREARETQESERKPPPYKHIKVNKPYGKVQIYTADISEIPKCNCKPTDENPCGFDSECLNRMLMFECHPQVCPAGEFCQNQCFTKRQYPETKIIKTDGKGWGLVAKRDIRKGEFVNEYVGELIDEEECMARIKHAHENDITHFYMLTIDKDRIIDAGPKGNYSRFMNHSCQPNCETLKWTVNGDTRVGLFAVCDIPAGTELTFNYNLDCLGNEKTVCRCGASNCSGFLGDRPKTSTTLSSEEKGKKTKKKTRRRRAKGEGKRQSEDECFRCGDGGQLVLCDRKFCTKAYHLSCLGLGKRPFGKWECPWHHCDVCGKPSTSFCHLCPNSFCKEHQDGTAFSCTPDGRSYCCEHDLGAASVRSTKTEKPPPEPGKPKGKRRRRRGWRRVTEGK

[7] = molecular target: SMYD2 (Homo sapiens, UniProt Q9NRG4); assay: human MTase selectivity panel
[8] = average ± SD, read-out: Activity (%) at 10 µM Average
[9] = read-out: Activity (%) at 10 µM Replicate 1
[10] = read-out: Activity (%) at 10 µM Replicate 2
[11] = read-out: Activity (%) at 10 µM Replicate 3

Sequence of SMYD2 (Q9NRG4 whole entry): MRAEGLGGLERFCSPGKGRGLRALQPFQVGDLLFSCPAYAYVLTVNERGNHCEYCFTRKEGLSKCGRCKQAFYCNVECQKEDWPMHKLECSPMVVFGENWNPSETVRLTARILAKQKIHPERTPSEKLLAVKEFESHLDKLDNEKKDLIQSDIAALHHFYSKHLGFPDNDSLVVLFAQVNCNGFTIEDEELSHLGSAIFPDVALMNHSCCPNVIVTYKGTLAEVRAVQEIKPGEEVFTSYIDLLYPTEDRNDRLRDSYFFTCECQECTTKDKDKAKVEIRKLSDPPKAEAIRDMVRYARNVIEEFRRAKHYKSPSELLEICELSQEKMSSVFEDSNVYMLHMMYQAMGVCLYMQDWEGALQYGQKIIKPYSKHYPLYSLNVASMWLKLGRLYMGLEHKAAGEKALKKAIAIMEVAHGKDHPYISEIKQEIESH
Sequence of MLL1 (Q9UBL3 whole entry): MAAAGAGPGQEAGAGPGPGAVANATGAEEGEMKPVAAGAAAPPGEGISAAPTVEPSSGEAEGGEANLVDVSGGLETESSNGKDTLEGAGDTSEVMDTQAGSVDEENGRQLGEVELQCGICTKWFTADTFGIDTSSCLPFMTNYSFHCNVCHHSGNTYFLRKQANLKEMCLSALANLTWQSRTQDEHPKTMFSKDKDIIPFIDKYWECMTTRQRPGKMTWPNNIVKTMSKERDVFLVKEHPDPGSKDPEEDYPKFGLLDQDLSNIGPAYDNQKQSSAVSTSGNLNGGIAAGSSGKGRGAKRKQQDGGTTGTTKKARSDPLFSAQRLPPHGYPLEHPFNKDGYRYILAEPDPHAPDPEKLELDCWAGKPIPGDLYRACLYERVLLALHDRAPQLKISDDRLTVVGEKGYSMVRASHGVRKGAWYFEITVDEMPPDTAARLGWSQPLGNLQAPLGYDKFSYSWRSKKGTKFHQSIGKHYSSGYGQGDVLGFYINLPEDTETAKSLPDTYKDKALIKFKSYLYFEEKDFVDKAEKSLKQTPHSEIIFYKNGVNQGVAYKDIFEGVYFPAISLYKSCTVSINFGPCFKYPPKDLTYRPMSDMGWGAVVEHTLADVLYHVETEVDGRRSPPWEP
Sequence of MLL1 (Q15291 whole entry, further chain): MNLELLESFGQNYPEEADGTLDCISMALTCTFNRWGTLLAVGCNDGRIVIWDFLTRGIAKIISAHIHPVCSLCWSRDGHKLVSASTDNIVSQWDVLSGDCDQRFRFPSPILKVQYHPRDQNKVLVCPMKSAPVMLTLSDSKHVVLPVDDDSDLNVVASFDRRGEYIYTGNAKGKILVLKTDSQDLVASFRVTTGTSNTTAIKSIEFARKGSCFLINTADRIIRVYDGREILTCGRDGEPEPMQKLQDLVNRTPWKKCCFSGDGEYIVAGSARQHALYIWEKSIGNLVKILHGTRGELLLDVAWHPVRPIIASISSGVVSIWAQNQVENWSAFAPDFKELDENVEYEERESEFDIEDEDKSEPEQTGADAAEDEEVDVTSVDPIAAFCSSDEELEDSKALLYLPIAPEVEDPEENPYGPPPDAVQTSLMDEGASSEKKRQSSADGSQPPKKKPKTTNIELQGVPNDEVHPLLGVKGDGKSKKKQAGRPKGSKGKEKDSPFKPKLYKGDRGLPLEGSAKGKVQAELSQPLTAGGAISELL
Sequence of MLL1 (Q03164 3745-3969): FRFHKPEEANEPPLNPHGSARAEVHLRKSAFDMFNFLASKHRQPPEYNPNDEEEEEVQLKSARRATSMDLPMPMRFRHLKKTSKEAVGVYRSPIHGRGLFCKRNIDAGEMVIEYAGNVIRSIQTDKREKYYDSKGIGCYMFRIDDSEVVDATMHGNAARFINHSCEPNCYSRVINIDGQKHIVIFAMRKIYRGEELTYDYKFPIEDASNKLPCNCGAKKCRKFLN
Sequence of DOT1L (Q8TEK3 whole entry): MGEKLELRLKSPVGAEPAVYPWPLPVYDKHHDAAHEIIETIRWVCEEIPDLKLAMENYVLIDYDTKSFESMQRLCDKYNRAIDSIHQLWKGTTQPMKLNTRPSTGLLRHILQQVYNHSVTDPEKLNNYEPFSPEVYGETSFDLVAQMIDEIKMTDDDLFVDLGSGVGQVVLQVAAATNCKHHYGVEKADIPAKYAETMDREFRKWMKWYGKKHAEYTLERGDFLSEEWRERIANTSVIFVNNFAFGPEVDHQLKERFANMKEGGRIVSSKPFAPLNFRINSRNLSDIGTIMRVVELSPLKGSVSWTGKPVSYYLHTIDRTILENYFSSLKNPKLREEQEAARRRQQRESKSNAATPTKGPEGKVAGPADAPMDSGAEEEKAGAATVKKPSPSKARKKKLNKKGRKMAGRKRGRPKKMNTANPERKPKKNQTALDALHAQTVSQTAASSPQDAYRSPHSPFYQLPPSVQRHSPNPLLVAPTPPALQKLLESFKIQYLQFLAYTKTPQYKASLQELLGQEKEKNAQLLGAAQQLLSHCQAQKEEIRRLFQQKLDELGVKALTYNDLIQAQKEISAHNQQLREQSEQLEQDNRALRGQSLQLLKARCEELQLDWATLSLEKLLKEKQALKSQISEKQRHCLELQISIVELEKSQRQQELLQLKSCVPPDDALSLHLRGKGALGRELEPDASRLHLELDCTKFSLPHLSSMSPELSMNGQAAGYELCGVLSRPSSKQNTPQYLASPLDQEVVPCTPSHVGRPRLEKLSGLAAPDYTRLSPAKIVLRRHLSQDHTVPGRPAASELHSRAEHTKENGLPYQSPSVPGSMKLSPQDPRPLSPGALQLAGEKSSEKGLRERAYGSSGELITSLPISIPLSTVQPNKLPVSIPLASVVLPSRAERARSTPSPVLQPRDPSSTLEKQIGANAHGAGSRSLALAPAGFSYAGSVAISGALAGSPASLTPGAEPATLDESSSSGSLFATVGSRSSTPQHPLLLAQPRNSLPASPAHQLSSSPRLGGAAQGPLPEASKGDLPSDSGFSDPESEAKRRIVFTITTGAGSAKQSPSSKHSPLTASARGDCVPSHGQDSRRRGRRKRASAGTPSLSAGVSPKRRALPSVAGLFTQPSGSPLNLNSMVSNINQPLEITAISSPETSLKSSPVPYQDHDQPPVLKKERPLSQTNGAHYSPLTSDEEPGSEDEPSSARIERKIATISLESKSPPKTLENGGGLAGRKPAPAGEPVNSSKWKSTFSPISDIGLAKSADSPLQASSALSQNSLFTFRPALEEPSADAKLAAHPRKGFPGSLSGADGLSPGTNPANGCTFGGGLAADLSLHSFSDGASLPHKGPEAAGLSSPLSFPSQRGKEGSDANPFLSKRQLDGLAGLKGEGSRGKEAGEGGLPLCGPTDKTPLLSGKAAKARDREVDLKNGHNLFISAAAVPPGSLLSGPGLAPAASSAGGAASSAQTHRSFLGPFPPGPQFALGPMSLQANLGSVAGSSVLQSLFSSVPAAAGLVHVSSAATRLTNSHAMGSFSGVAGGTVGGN
Sequence of PRMT8 (Q9NR22 whole entry): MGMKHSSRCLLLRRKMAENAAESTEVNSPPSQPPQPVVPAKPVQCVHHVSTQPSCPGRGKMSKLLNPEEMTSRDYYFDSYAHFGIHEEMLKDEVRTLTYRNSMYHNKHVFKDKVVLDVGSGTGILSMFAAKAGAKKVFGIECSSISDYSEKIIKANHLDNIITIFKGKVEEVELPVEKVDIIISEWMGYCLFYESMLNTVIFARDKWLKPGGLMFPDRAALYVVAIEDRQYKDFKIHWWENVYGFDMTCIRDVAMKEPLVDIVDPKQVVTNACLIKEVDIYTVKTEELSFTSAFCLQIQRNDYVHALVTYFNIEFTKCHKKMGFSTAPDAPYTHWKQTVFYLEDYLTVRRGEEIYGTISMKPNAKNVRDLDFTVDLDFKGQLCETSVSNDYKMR

SMILES: Nc1ncnc2c1ncn2[C@@H]1O[C@H](CSCc2ccc(Cl)cc2)[C@@H](O)[C@H]1O [NSC620333]
- activity at 10 µM [1, 8]: 97 ± 3%
- activity at 10 µM [1, 9]: 96%
- activity at 10 µM [1, 10]: 95%
- activity at 10 µM [1, 11]: 101%
- activity at 10 µM [2, 8]: 93 ± 9%
- activity at 10 µM [2, 9]: 103%
- activity at 10 µM [2, 10]: 90%
- activity at 10 µM [2, 11]: 86%
- activity at 10 µM [3, 8]: 96 ± 3%
- activity at 10 µM [3, 9]: 97%
- activity at 10 µM [3, 10]: 99%
- activity at 10 µM [3, 11]: 93%
- activity at 10 µM [4, 8]: 85 ± 2%
- activity at 10 µM [4, 9]: 84%
- activity at 10 µM [4, 10]: 87%
- activity at 10 µM [4, 11]: 84%
- IC50 ([5]; IC50 (µM), nsp14 MTase activity, high-throughput screening follow-up): 5 µM
- IC50 ([5]; IC50, at Km of both SAM and RNA substrates, mean ± SD, n = 3): 5.3 ± 1 µM
- mechanism of action with respect to RNA substrate ([5]; IC50 at varying RNA (31 to 500 nM), fixed SAM 1.25 µM): noncompetitive
- mechanism of action with respect to SAM ([5]; IC50 at varying SAM (0.15 to 2.5 µM), fixed RNA 0.25 µM): SAM competitive
- inhibition of nsp14, batch retesting ([5]; custom-ordered, highly purified (>99%) sample): more pronounced inhibition
- inhibition at 100 µM ([5]; read-out: nsp14 Inhibition % (100µM) Exp 1): 100%
- inhibition at 100 µM ([5]; read-out: nsp14 Inhibition % (100µM) Exp 2): 99%
- activity at 10 µM [6, 8]: 92 ± 7%
- activity at 10 µM [6, 9]: 100%
- activity at 10 µM [6, 10]: 86%
- activity at 10 µM [6, 11]: 90%
- activity at 10 µM [7, 8]: 105 ± 8%
- activity at 10 µM [7, 9]: 104%
- activity at 10 µM [7, 10]: 114%
- activity at 10 µM [7, 11]: 99%

Source: publication doi:10.1101/2023.10.03.560722, “Drug Discovery in Low Data Regimes: Leveraging a Computational Pipeline for the Discovery of Novel SARS-CoV-2 Nsp14-MTase Inhibitors” (bioRxiv, 2024)
